From US20150337276A1, “ENZYME HAVING A NMDA RECEPTOR ANTAGONIST ACTIVITY AND/OR AN ANTICHOLINERGIC ACTIVITY” (priority 2012, published 2015)

Experiments:
cortical neurons = assay: Neurite network density (NF-H labeling) of cortical neurons under basal conditions, potential neurotoxic effect; conditions: enzymes 2.5 μM for 30 hours, glutamate 100 μM for 6 hours
[1] = system: glutamate intoxicated-cortical neurons; assay: Neurite network density (NF-H labeling) of glutamate-intoxicated cortical neurons, neuroprotective effect; format: cell-based, rat; conditions: intoxicated conditions (glutamate 100 μM, 6 hours)
Protocol: Culture conditions: 37° C., 5% CO2
At DIV9, the reference MK-801 (10 μM) was pre-incubated for 30 minutes before glutamate intoxication. Cortical neurons were then incubated for 6 hours with 100 μM of glutamate in presence or not (intoxicated control) of test compounds, the solvent control or the reference. A control without glutamate (non-intoxicated control) was performed in parallel. All experimental conditions were performed in n=3.
All the images were taken under the same conditions.
Raw data were analyzed with Microsoft Excel® software.

NMDA receptor = assay: NMDA current recording by patch clamp (whole cell, voltage clamp -30 mV) in dorsal root ganglia nociceptor neurons; format: cell-based, rat; conditions: for Percentage inhibition of NMDA current: NMDA 250 μM, holding potential -30 mV
Protocol: In one embodiment, the NMDA antagonist activity of the enzyme of the invention is measured by electrophysiology, as shown in Example 3. In one embodiment, said measurement is performed on dorsal root ganglion nociceptor neurons of rats.
The culture conditions of dorsal root ganglia neurons of rats were adapted from Hao and Delmas (J Neurosci. 2010, 6; 30(40)).
NMDA current recordings are performed in neurons of small and medium diameter (nociceptors). Neurons are identified visually and electrophysiologically by measuring their membrane capacitance. […] These neurons express the NMDA receptor in the dorsal root ganglia. Nociceptors are specifically identified by the presence of TTX-resistant Nav1.8 sodium current. Each neuron is tested for the presence upstream of Nav1.8.
NMDA currents are low amplitude currents. Thus, electrical leakage is carefully checked during recording. Infusion or injection of products was performed close to neurons to avoid changes in concentration (dilution effect). Media infusion was extemporaneously daily handled. Products OPN-001 were diluted from stock solutions and stored at 4° C. The data were collected using an Axopatch amplifier 200-B, the Clampex software (PClamp V10, Molecular Device) and stored and analyzed using Clampfit.

N[C@@H](CCC(=O)O)C(=O)O [Glutamate]
Mean NF-H-positive neurite surface (cortical neurons; basal conditions (no glutamate), n=3): 21503 μm^2
Intoxication (%) (cortical neurons; basal conditions, normalized to control): 34%

C[C@]12N[C@H](Cc3ccccc31)c1ccccc12 [MK801]
Mean NF-H-positive neurite surface ([1]; enzymes 2.5 μM pre-incubated 24 hours, MK801 10 μM pre-incubated 30 minutes, n=3): 32319 μm^2
Protection (%) ([1]; enzymes 2.5 μM, MK801 10 μM): ~96%

[Cl-].[Cl-].[Zn+2] [ZnCl2]
efficiency in inhibiting NMDA current, in words (NMDA receptor; 5 nM, alone): not efficient
time for the blocking effect on NMDA current to occur, in words (NMDA receptor; 50 nM and 500 nM): within seconds
inhibition of the NMDA current, trace (FIG. 1B), in words (NMDA receptor; 50 nM, 200 μl applied alone, NMDA 250 μM for 80 s): inhibits all of the NMDA current
Percentage inhibition of NMDA current (NMDA receptor; test substance 5 nM): 0%
Percentage inhibition of NMDA current (NMDA receptor; test substance 50 nM, mean of neurons): 100%
Percentage inhibition of NMDA current (NMDA receptor; test substance 500 nM, mean of neurons): 100%
